Test results: patent publication US20180273528A1 (LES LABORATOIRES SERVIER, priority 2015, published 2018)

What was measured:
[1] = biological target: T1, His-TEV-DYRK1A Kinase domain (aa127-485) (Homo sapiens, UniProt Q13627); assay: Kinase ADP assay (ADP Hunter), DYRK1A kinase domain; assay type: biochemical; settings: 20 μM ATP
T1 construct: His-TEV-DYRK1A Kinase domain (aa127-485); His tag (N); TEV protease cleavage site (N)
Summary of the method: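 Readout is ADP Hunter fluorescence at 590 nm, developed 20 min at 30 °C after the kinase step. That step ran 10 min at 30 °C in Hepes pH 7.4 (10 mM MgCl2, 1 mM EGTA, 0.02% Tween20) containing 20 μM ATP, 40 μM peptide and 20 nM enzyme plus compound.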

DYRK1A [2] = biological target: T2, DYRK1A (Homo sapiens, UniProt Q13627); assay: Kinase TR-FRET assay, DYRK1A; assay type: biochemical; set-up: full-length, wild-type human DYRK1A (NM_001396) with an HA tag; expressed in transfected cells; host or cells: human U2-OS osteosarcoma cells, transient transfection of a pcDNA3.1 plasmid; settings: full-length human kinase, 10 μM ATP
Description: Inhibition of the enzymatic activity of human kinases was evaluated in a Time-Resolved Fluorescence Resonance Energy Transfer (TR-FRET) assay in 384-well reaction plates. […] Test compounds of the invention were added in reaction buffer at a range of concentrations from 0.1 nM to 30 μM. Following addition of EDTA (Sigma E7889, 10 mM) to stop the reaction, Europium-labelled mouse monoclonal antibody recognizing phospho-Thr232 in MBP (Perkin Elmer TRF0201, 1 nM) was added.

DYRK1A [3] = biological target: T2, DYRK1A; assay: Cellular DYRK1 autophosphorylation assay in U2-OS cells; assay type: cell-based; set-up: full-length, wild-type human DYRK1A (NM_001396) with an HA tag; expressed in transfected cells; host or cells: human U2-OS osteosarcoma cells, transient transfection of a pcDNA3.1 plasmid; settings: U2-OS cells transfected with HA-tagged human DYRK1A, 5 hours exposure; read-out: IC50 (μM) P-Ser520-Dyrk1A -Cell assay
Description: On day 2, cells were exposed to a range of concentrations of the test compounds of the invention for 5 hours. […] The relative levels of phospho-Ser520-DYRK1A were assayed using either western blotting or the Mesoscale ELISA platform. For analysis by western blot, lysates were diluted into Laemmli sample buffer (Bio-Rad) containing 5% v/v β-mercaptoethanol, heated for 5 min at 95° C., and resolved on Tris-glycine gels or NuPage Bis-Tris gels (Novex; Invitrogen). Biotinylated molecular weight standards (Cell Signaling Technology) were included in all gels. Proteins were transferred to nitrocellulose membranes (Hybond, ECL; Amersham), which were blocked in Tris-buffered saline/0.1% tween 20 (TBST) containing 5% milk, and probed at 4° C. overnight with anti-phospho-Ser520-DYRK1A antibody (Eurogentec SE6974-75; 0.23 μg/ml in 5% BSA) or anti DYRK1A antibody (Abnova H00001859; 0.5 μg/ml in 5% milk). Peroxidase-conjugated secondary antibodies were diluted into 5% milk and applied to membranes for 1 h at 20° C. Chemiluminescence detection was performed using the ECL plus western blotting detection kit (Amersham) and was recorded on ECL plus hyperfilm (Amersham). Blots were scanned using the Bio-Rad GS-800 calibrated densitometer and quantitative analysis of western blots was performed using TotalLab software (Amersham). IC50 values for inhibition of phospho-Ser520-DYRK1A were calculated from dose-response curves plotting the ratio between phospho-Ser520-DYRK1A and total DYRK1A signals at each concentration. […] Anti-phospho-Ser520-DYRK1A antibody (Eurogentec SE6974-75; […]) and anti DYRK1A antibody (Abnova H00001859; 3 μg/ml) was then added for 1 hour at RT, followed by addition of Sulfa-TAG anti-rabbit detection antibody (ref MSD R32AB; 1 μg/ml) and Sulfa-TAG anti-mouse detection antibody (ref MSD R32-AC-1; 1 μg/ml). After a further 1 hour, Read Buffer was added and plates were read on the Sector Imager 2400 (Mesoscale). IC50 values for inhibition of phospho-Ser520-DYRK1A were calculated from dose-response curves.

Row | IC50 [1] [µM] | IC50 (DYRK1A [2]) [µM] | IC50 (DYRK1A [3]) [µM] | SMILES
1 | 0.128 | 0.061 |  | Cc1nc2ccc(-c3cc(N)nc(N)c3)nc2n1Cc1ccccc1 [Example 8, 4-(3-benzyl-2-methyl-3H-imidazo[4,5-b]pyridin-5-yl)pyridine-2,6-diamine]
2 | 0.367 | 0.153 |  | Cc1nc2ccc(-c3cc(N)nc(N)c3)nc2n1[C@H]1C[C@H]2C[C@@H]([C@@H]1C)C2(C)C [Example 16, 4-[2-methyl-3-[(1S,2S,3S,5R)-2,6,6-trimethylbicyclo[3.1.1]hept-3-yl]-3H-imidazo[4,5-b]pyridin-5-yl]pyridine-2,6-diamine]
3 | 0.364 | 0.069 |  | Cc1nc2ccc(-c3cc(N)nc(N)c3)nc2n1CC12CC3CC(CC(C3)C1)C2 [Example 22, 4-{2-methyl-3-tricyclo[3.3.1.1^3,7]dec-1-ylmethyl-3H-imidazo[4,5-b]pyridin-5-yl}pyridine-2,6-diamine]
4 | 0.037 | 0.095 |  | Cc1cc([C@@H](C)n2c(C)nc3ccc(-c4cc(N)nc(N)c4)nc32)ccn1 [Example 32, 4-{2-methyl-3-[(I R)-1-(2-methylpyridin-4-yl)ethyl]-3H-imidazo[4,5-b]pyridin-5-yl}pyridine-2,6-diamine]
5 | 0.018 | 0.045 |  | CCC(C)n1c(C)nc2ccc(-c3cc(N)nc(N)c3)nc21 (stereo not shown) [Example 33, 4-[3-(butan-2-yl)-2-methyl-3H-imidazo[4,5-b]pyridin-5-yl]pyridine-2,6-diamine]
6 | 0.008 | 0.012 |  | CCOC(=O)N1CCC(n2c(C)nc3ccc(-c4cc(N)nc(N)c4)nc32)CC1 [Example 35]
7 | 0.027 | 0.052 |  | Cc1nc2ccc(-c3cc(N)nc(N)c3)nc2n1CC(O)CO (stereo not shown) [Example 37, 3-[5-(2,6-diaminopyridin-4-yl)-2-methyl-3H-imidazo[4,5-b]pyridin-3-yl]propane-1,2-diol]
8 | 0.008 | 0.028 |  | Cc1nc2ccc(-c3cc(N)nc(N)c3)nc2n1C1CCN(C(=O)C(C)C)CC1 [Example 38, 1-{4-[5-(2,6-diaminopyridin-4-yl)-2-methyl-3H-imidazo[4,5-b]pyridin-3-yl]piperidin-1-yl}-2-methylpropan-1-one]
9 | 0.045 | 0.245 |  | COc1cc(Cl)ccc1Cn1c(C)nc2ccc(-c3cc(N)nc(N)c3)nc21 [Example 39, 4-[3-(4-chloro-2-methoxybenzyl)-2-methyl-3H-imidazo[4,5-b]pyridin-5-yl]pyridine-2,6-diamine]
10 | 0.187 | 0.154 |  | Cc1nc2ccc(-c3cc(N)nc(N)c3)nc2n1Cc1ccc(C#N)cc1 [Example 40, 4-{[5-(2,6-diaminopyridin-4-yl)-2-methyl-3H-imidazo[4,5-b]pyridin-3-yl]methyl}benzonitrile]
11 | 0.109 | 0.116 |  | Cc1nc2ccc(-c3cc(N)nc(N)c3)nc2n1Cc1ccc(OC(F)F)cc1 [Example 43, 4-{3-[4-(difluoromethoxy)benzyl]-2-methyl-3H-imidazo[4,5-b]pyridin-5-yl}pyridine-2,6-diamine]
12 | 0.055 | 0.177 |  | Cc1nn(C)c(C)c1Cn1c(C)nc2ccc(-c3cc(N)nc(N)c3)nc21 [Example 45, 4-{2-methyl-3-[(3,5-trimethyl-1H-pyrazol-4-yl)methyl]-3H-imidazo[4,5-b]pyridin-5-yl}pyridine-2,6-diamine]
13 | 0.035 | 0.056 |  | Cc1nc2ccc(-c3cc(N)nc(N)c3)nc2n1Cc1cc(F)ccc1F [Example 46, 4-[3-(2,5-difluorobenzyl)-2-methyl-3H-imidazo[4,5-b]pyridin-5-yl]pyridine-2,6-diamine]
14 | 0.056 | 0.116 |  | Cc1nc2ccc(-c3cc(N)nc(N)c3)nc2n1Cc1cccc(Cl)c1 [Example 48, 4-[3-(3-chlorobenzyl)-2-methyl-3H-imidazo[4,5-b]pyridin-5-yl]pyridine-2,6-diamine]
15 | 0.51 | 0.149 |  | Cc1nc2ccc(-c3cc(N)nc(N)c3)nc2n1C(C)(C)c1ccccc1 [Example 60, 4-[2-methyl-3-(2-phenylpropan-2-yl)-3H-imidazo[4,5-b]pyridin-5-yl]pyridine-2,6-diamine]
16 | 0.781 | 0.166 |  | Cc1nc2ccc(-c3cc(N)nc(N)c3)nc2n1C1CCCc2ccccc21 (stereo not shown) [Example 62, 4-[2-methyl-3-(1,2,3,4-tetrahydronaphthalen-1-yl)-3H-imidazo[4,5-b]pyridin-5-yl]pyridine-2,6-diamine]
17 | 0.903 | 0.104 |  | CCC(c1ccccc1)n1c(C)nc2ccc(-c3cc(N)nc(N)c3)nc21 (stereo not shown) [Example 67, 4-[2-methyl-3-(1-phenylpropyl)-3H-imidazo[4,5-b]pyridin-5-yl]pyridine-2,6-diamine]
18 | 0.007 | 0.002 |  | COc1ccccc1CCCn1c(C)nc2ccc(-c3cc(N)nc(N)c3)nc21 [Example 69, 4-{3-[3-(2-methoxyphenyl)propyl]-2-methyl-3H-imidazo[4,5-b]pyridin-5-yl}pyridine-2,6-diamine]
19 | 0.005 | 0.012 |  | Cc1nc2ccc(-c3cc(N)nc(N)c3)nc2n1C1CC2CCC1C2 (stereo not shown) [Example 155, 4-[3-(bicyclo[2.2.1]hept-2-yl)-2-methyl-3H-imidazo[4,5-b]pyridin-5-yl]pyridine-2,6-diamine]
20 | 0.007 |  | 0.017 | Cc1nc2ccc(-c3cc(N)nc(N)c3)nc2n1CCOc1cccc(C(F)F)n1 [Example 173, 4-[3-(2-{[6-(difluoromethyl)pyridin-2-yl]oxy}ethyl)-2-methyl-3H-imidazo[4,5-b]pyridin-5-yl]pyridine-2,6-diamine]
21 | 0.007 |  | 0.02 | Cc1nc2ccc(-c3cc(N)nc(N)c3)nc2n1CCOc1cccc(C(F)(F)F)n1 [Example 194, 4-[2-methyl-3-(2-{[6-(trifluoromethyl)pyridin-2-yl]oxy}ethyl)-3H-imidazo[4,5-b]pyridin-5-yl]pyridine-2,6-diamine]
22 | 0.013 |  | 0.106 | Cc1cccc(OCCn2c(C)nc3ccc(-c4cc(N)nc(N)c4)nc32)n1 [Example 195, 4-(2-methyl-3-{2-[(6-methylpyridin-2-yl)oxy]ethyl}-3H-imidazo[4,5-b]pyridin-5-yl)pyridine-2,6-diamine]
23 | 0.012 |  | 0.141 | Cc1nc2ccc(-c3cc(N)nc(N)c3)nc2n1CCOc1cccc(N)n1 [Example 196, 4-(3-{2-[(6-aminopyridin-2-yl)oxy]ethyl}-2-methyl-3H-imidazo[4,5-b]pyridin-5-yl)pyridine-2,6-diamine]
24 | 0.007 |  | 0.054 | Cc1nc2ccc(-c3cc(N)nc(N)c3)nc2n1CCOc1cccc(C#N)n1 [Example 197, 6-{2-[5-(2,6-diaminopyridin-4-yl)-2-methyl-3H-imidazo[4,5-b]pyridin-3-yl]ethoxy}pyridine-2-carbonitrile]
25 | 0.016 |  | 0.155 | Cc1ccc(OCCn2c(C)nc3ccc(-c4cc(N)nc(N)c4)nc32)cc1 [Example 208, 4-{2-methyl-3-[2-(4-methylphenoxy)ethyl]-3H-imidazo[4,5-b]pyridin-5-yl}pyridine-2,6-diamine]
26 | 0.016 |  | 0.153 | Cc1nc2ccc(-c3cc(N)nc(F)c3)nc2n1C1CC(F)(F)C1 [Example 240, 4-[3-(3,3-difluorocyclobutyl)-2-methyl-3H-imidazo[4,5-b]pyridin-5-yl]-6-fluoropyridin-2-amine]
